Measured values from ChEMBL document CHEMBL5137070, “N-2-(Phenylamino) Benzamide Derivatives as Dual Inhibitors of COX-2 and Topo I Deter Gastrointestinal Cancers via Targeting Inflammation and Tumor Progression” (J Med Chem, 2022).
Active and inactive are the calls of the source. The calls are words filed in the database; no cut-off is given here.

Key:
[1] = Metabolic stability in rat whole blood assessed as parent compound remaining at 23.76 to 536 ug/mL and measured upto 4 hrs by HPLC analysis; format: ADME, tissue-based; details: at 23.76 to 536 µg/mL, dose 23.76-536 µg/ml, read-out: Stability
RKO [2] = experiment: Antiproliferative activity against human RKO cells assessed as clone formation at 0.04 to 3.3 uM incubated for 4 days by crystal violet staining based analysis; format: functional, cell-based; details: dose 0.04-3.3 µM, time 4.0 day
HGC-27 [3] = experiment: Induction of apoptosis in human HGC-27 cells assessed as increase in cleaved caspase-3 expression at 1.1 to 10 uM incubated for 24 hrs by western blot assay; format: functional, cell-based; details: dose 1.1-10 µM
[4] = Half in Sprague-Dawley rat at 100 mg/kg, ip and measured upto 8 hrs by LC-MS/MS analysis; format: ADME, organism-based; details: in vivo
CT26.WT [5] = experiment: Anti-tumor activity against mouse CT26.WT xenografted in BALB/c mouse assessed as decrease in MMP-9 expression level in tumor tissue at 100 mg/kg, ip twice daily and measured after 14 days by immunohistochemical analysis; format: functional, organism-based; details: time 14.0 day
HGC-27 [6] = experiment: Antiproliferative activity against human HGC-27 cells assessed as clone formation at 0.37 to 3.3 uM incubated for 4 days by crystal violet staining based analysis; format: functional, cell-based; details: dose 0.37-3.3 µM, time 4.0 day
[7] = target: Nuclear factor NF-kappa-B complex (Homo sapiens) (UniProt Q00653+P19838+Q04206); experiment: Inhibition of NF-kappaB activation in human RKO cells assessed as downregulation of NF-kappaB phosphorylation at 10 uM for 48 hrs by DAPI staining based immunofluorescence assay; format: cell-based
Sequence of Nuclear factor NF-kappa-B complex (Homo sapiens) (P19838 whole entry, looked up): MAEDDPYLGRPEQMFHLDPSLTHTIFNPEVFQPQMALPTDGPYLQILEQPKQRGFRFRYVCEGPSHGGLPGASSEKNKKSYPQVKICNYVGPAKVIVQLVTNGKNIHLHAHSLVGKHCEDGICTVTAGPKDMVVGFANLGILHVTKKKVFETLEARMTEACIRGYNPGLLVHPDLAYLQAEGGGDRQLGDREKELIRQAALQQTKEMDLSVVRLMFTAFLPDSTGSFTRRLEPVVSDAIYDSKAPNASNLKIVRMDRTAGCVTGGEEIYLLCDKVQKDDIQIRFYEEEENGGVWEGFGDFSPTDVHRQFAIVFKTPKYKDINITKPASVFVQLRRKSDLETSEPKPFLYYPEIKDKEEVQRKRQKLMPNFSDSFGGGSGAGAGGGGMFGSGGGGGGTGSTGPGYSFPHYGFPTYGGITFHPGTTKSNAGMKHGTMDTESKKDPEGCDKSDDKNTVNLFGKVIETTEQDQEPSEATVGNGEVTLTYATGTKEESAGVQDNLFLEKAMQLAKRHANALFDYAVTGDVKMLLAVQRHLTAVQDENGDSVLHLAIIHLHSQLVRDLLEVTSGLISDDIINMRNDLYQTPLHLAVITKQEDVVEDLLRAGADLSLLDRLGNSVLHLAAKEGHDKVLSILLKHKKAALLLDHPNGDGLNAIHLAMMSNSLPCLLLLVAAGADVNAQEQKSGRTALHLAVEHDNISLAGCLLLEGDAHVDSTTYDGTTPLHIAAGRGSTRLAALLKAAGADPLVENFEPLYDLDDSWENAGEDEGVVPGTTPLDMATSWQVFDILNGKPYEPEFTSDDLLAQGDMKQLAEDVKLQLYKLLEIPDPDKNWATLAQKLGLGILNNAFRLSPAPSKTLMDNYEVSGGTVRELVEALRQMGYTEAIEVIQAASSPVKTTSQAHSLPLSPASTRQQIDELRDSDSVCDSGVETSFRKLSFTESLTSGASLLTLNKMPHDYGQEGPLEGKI
Sequence of Nuclear factor NF-kappa-B complex (Homo sapiens) (Q00653 whole entry, looked up): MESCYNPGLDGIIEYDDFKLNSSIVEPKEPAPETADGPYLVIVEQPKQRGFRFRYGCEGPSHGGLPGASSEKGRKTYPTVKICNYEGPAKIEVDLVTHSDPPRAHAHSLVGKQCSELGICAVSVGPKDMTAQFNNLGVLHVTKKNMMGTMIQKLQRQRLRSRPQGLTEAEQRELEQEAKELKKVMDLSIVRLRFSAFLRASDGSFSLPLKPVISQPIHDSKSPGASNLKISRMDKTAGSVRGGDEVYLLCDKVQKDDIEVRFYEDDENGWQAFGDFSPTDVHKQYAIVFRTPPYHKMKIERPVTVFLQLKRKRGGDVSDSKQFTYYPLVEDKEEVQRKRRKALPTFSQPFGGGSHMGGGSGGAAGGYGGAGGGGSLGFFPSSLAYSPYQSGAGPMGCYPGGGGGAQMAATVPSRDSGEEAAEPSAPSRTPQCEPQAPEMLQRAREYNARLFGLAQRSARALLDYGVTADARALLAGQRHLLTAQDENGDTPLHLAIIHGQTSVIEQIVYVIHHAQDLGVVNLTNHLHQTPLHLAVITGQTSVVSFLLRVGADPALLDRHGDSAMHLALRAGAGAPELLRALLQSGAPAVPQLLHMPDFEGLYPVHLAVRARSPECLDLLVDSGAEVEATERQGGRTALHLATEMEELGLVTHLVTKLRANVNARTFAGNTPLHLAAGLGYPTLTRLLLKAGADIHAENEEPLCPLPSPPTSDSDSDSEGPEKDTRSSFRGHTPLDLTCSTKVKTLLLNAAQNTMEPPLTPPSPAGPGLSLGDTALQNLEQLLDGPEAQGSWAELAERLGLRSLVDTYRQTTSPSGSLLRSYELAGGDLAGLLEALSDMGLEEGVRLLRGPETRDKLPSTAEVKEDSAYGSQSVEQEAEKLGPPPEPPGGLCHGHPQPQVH
Sequence of Nuclear factor NF-kappa-B complex (Homo sapiens) (Q04206 whole entry, looked up): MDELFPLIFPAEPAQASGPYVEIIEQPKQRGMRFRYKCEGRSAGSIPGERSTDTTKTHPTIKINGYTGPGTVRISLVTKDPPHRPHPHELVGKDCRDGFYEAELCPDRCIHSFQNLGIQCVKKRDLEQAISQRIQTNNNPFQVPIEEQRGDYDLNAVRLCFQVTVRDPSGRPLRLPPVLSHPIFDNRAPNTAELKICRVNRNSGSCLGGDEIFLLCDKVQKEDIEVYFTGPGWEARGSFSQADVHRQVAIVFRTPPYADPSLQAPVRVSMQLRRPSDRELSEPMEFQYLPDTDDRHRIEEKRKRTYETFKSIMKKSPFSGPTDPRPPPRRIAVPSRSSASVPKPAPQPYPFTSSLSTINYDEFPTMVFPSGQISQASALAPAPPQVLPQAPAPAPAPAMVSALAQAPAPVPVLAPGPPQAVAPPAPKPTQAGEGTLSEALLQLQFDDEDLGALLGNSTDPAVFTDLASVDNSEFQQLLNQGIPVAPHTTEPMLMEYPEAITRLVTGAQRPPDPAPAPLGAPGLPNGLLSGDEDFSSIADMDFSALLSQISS

[8] = target: T1, DNA topoisomerase 1 (Homo sapiens) (UniProt P11387); experiment: Inhibition of human topoisomerase I assessed as DNA unwinding using DNA pBR322 as substrate at 2 uM incubated for 30 mins by ethidium bromide staining based agarose gel electrophoresis
T1 sequence (whole entry): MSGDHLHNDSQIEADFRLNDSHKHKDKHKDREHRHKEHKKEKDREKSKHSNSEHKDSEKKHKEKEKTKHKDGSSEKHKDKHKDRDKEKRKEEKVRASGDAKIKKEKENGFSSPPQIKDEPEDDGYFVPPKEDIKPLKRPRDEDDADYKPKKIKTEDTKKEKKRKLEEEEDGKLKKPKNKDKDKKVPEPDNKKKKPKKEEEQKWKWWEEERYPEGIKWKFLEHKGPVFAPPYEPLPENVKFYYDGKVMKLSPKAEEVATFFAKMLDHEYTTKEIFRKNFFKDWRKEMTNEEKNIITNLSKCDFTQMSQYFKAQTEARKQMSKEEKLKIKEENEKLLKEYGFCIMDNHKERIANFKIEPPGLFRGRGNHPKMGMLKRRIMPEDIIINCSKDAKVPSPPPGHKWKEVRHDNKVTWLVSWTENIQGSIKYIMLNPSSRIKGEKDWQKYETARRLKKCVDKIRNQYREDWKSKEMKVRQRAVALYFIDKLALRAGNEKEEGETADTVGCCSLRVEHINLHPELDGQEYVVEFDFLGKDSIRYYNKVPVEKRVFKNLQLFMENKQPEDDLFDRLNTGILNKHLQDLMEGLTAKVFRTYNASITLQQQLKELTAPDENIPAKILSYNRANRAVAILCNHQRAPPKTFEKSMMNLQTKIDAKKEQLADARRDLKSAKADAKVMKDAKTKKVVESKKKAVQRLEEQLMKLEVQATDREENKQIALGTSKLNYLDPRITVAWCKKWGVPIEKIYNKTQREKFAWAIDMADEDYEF

HGC-27 [9] = experiment: Antiproliferative activity against human HGC-27 cells assessed as cell viability at <= 0.41 uM for 48 hrs by MTT assay; format: functional; details: up to 0.41 µM
HGC-27 [10] = experiment: Induction of apoptosis in human HGC-27 cells assessed as increase in Bax/Bcl-2 ratio expression at 1.1 to 10 uM incubated for 24 hrs by western blot assay; format: functional, cell-based; details: dose 1.1-10 µM
HGC-27 [11] = experiment: Induction of cell cycle arrest in human HGC-27 cells assessed as accumulation at G2/M phase at 3.3 to 10 uM for 24 hrs by propidium iodide staining based flow cytometry; format: functional; details: dose 3.3-10 µM
HGC-27 [12] = experiment: Induction of pro-apoptosis in human HGC-27 assessed as DNA breakdown by analyzing DNA ladder at 1.1 to 10 uM for 36 hrs by ethidium bromide staining based agarose gel electrophoresis; format: functional, cell-based; details: dose 1.1-10 µM
HGC-27 [13] = experiment: Induction of mitochondrial membrane loss in human HGC-27 at 1.1 to 10 uM and measured after 36 hrs by TMRE dye based flow cytometry; format: functional, cell-based; details: dose 1.1-10 µM, DDE = dose-dependent effect
HGC-27 [14] = experiment: Induction of apoptosis in human HGC-27 cells at 1.1 to 10 uM for 24 hrs by Annexin V-FITC/PI staining based flow cytometry; format: functional, cell-based; details: dose 1.1-10 µM
RKO [15] = experiment: Induction of apoptosis in human RKO cells assessed as increase in caspase-3 activity at 1.1 uM incubated for 36 hrs by flow cytometry (Rvb= 1.08%); format: functional
RKO [16] = experiment: Anti-metastasis activity against human RKO cells assessed as reduction in MMP-9 expression level at 3.3 to 10 uM for 24 hrs by western blot analysis; format: functional, cell-based; details: dose 3.3-10 µM
CT26.WT [17] = experiment: Anti-tumor activity against mouse CT26.WT xenografted in BALB/c mouse assessed as increase in apoptosis at 100 mg/kg, ip twice daily and measured after 14 days by TUNEL staining based assay; format: functional, organism-based; details: time 14.0 day
RKO [18] = experiment: Induction of apoptosis in human RKO cells assessed as increase in caspase-3 activity at 3.3 uM incubated for 36 hrs by flow cytometry (Rvb= 1.08%); format: functional
HGC-27 [19] = experiment: Induction of apoptosis in human HGC-27 cells assessed as increase in cytochrome C level at 1.1 to 10 uM incubated for 24 hrs by western blot assay; format: functional, cell-based; details: dose 1.1-10 µM
[20] = Acute toxicity in Kunming mouse assessed as mortality at 100 mg/kg,ip and measured upto 14 days; format: organism-based; details: in vivo, 336 h, time < 14 day
[21] = Toxicity in BALB/c mouse xenografted with mouse CT26.WT assessed as change in body weight at 100 mg/kg, ip twice daily and measured upto 14 days relative to control; format: organism-based; details: in vivo, 336 h, time < 14 day
[22] = AUC (0 to t) in Sprague-Dawley rat at 100 mg/kg, ip and measured upto 8 hrs by LC-MS/MS analysis; format: ADME, organism-based; parameters: dose 100 mg/kg, time < 8 hrs, route ip; details: in vivo
HGC-27 [23] = experiment: Effect on cell morphology in human HGC-27 cells assessed as contracted nucleus at 10 uM incubated for 48 hrs by giemsa staining based microscopic analysis; format: functional
[24] = Acute toxicity in Kunming mouse assessed as behavioral changes at 100 mg/kg,ip and measured upto 14 days; format: organism-based; details: in vivo, 336 h, time < 14 day
HGC-27 [25] = experiment: Antiproliferative activity against human HGC-27 cells assessed as reduction in cell proliferation incubated for 48 hrs by MTT assay; format: functional, cell-based; details: HGC-27, 48 h
RKO [26] = experiment: Induction of apoptosis in human RKO cells assessed as increase in cleaved caspase-3 expression at 1.1 to 10 uM incubated for 24 hrs by western blot assay; format: functional, cell-based; details: dose 1.1-10 µM
[27] = Toxicity in BALB/c mouse xenografted with mouse CT26.WT assessed as pathological changes in spleen at 100 mg/kg, ip twice daily and measured after 14 days by hematoxylin and eosin staining based microscopic analysis; format: organism-based; details: in vivo, 336 h, time 14 day

SMILES: Cc1c(Cl)cccc1Nc1ccc(F)cc1C(=O)NCc1ccc(O)c(O)c1
- remaining at 4 h [1]: > 90%
- Activity (RKO [2]): Active
- Activity (HGC-27 [3]): Active
- half-life [4]: 1.56 h
- Activity (CT26.WT [5]): Active
- Activity (HGC-27 [6]): Active
- inhibition [7]: Active
- inhibition [8]: 45.4%
- Activity (HGC-27 [9]): >80%
- Activity (HGC-27 [10]): Active
- Activity (HGC-27 [11]): Active
- Activity (HGC-27 [12]): Active
- Activity (HGC-27 [13]): Dde
- Activity (HGC-27 [14]): Active
- Activity (RKO [15]): 33.77%
- Activity (RKO [16]): Active
- Activity (CT26.WT [17]): Active
- Activity (RKO [18]): 55.24%
- Activity (HGC-27 [19]): Active
- Activity [20]: Non-Toxic
- Activity [21]: Non-Toxic
- AUC(0-t) at 8 h [22]: 18200 ng·h/mL
- Activity (HGC-27 [23]): Active
- Activity [24]: Non-Toxic
- IC50 (HGC-27 [25]): 4.71 µM
- Activity (RKO [26]): Active
- Activity [27]: Non-Toxic
